PubChem BioAssay (NCI)
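Compound exposure: 48 hours, 5 concentrations, 96-well plates. The concentration for 50% growth inhibition is given as GI50. Definition used: TGI = concentration required for complete inhibition of growth.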

Columns and labels:
Test in all cases: NCI-60 cell line screen, 48 h
786-0 renal = tested on: 786-0 renal
NCI-H460 lung = tested on: NCI-H460 lung
NCI-H226 lung = tested on: NCI-H226 lung
MOLT-4 leukemia = tested on: MOLT-4 leukemia
NCI-H23 lung = tested on: NCI-H23 lung
OVCAR-8 ovarian = tested on: OVCAR-8 ovarian
HCC-2998 colon = tested on: HCC-2998 colon
SNB-75 CNS = tested on: SNB-75 CNS
CCRF-CEM leukemia = tested on: CCRF-CEM leukemia
NCI-H522 lung = tested on: NCI-H522 lung
NCI/ADR-RES ovarian = tested on: NCI/ADR-RES ovarian
HOP-62 NSCLC = tested on: HOP-62 NSCLC
SK-MEL-28 melanoma = tested on: SK-MEL-28 melanoma
UACC-257 melanoma = tested on: UACC-257 melanoma
OVCAR-5 ovarian = tested on: OVCAR-5 ovarian
OVCAR-3 ovarian = tested on: OVCAR-3 ovarian
MDA-MB-435 = tested on: MDA-MB-435
K-562 leukemia = tested on: K-562 leukemia
MCF7 breast = tested on: MCF7 breast
U251 CNS = tested on: U251 CNS
ACHN renal = tested on: ACHN renal
SF-295 CNS = tested on: SF-295 CNS
LOX IMVI melanoma = tested on: LOX IMVI melanoma
T-47D breast = tested on: T-47D breast
HL-60(TB) leukemia = tested on: HL-60(TB) leukemia
EKVX NSCLC = tested on: EKVX NSCLC
UO-31 renal = tested on: UO-31 renal
KM12 colon = tested on: KM12 colon
HCT-116 colon = tested on: HCT-116 colon
BT-549 breast = tested on: BT-549 breast
OVCAR-4 ovarian = tested on: OVCAR-4 ovarian
CAKI-1 renal = tested on: CAKI-1 renal
MDA-MB-231 breast = tested on: MDA-MB-231 breast
SF-539 CNS = tested on: SF-539 CNS
TK-10 renal = tested on: TK-10 renal
MALME-3M melanoma = tested on: MALME-3M melanoma
SK-MEL-2 melanoma = tested on: SK-MEL-2 melanoma
SN12C renal = tested on: SN12C renal
A549 NSCLC = tested on: A549 NSCLC
RPMI-8226 leukemia = tested on: RPMI-8226 leukemia
IGROV1 ovarian = tested on: IGROV1 ovarian
RXF 393 renal = tested on: RXF 393 renal
COLO 205 colon = tested on: COLO 205 colon
HS 578T breast = tested on: HS 578T breast
HT29 colon = tested on: HT29 colon
SW-620 colon = tested on: SW-620 colon
DU-145 prostate = tested on: DU-145 prostate
PC-3 prostate = tested on: PC-3 prostate
SK-OV-3 ovarian = tested on: SK-OV-3 ovarian
SK-MEL-5 melanoma = tested on: SK-MEL-5 melanoma
UACC-62 melanoma = tested on: UACC-62 melanoma
HCT-15 colon = tested on: HCT-15 colon
HOP-92 NSCLC = tested on: HOP-92 NSCLC
SF-268 CNS = tested on: SF-268 CNS
SNB-19 CNS = tested on: SNB-19 CNS

Work on O=C(CCSc1ccnc2c(C(F)(F)F)cccc12)N/N=C/c1cc(Cl)c(Cl)cc1Cl yielded a GI50 (786-0 renal) of 20.3 µM, a TGI (786-0 renal) of 35.1 µM and a GI50 (NCI-H460 lung) of 25.4 µM. The TGI (NCI-H460 lung) was 54.5 µM, the GI50 (NCI-H226 lung) was 17.6 µM and the TGI (NCI-H226 lung) was 39.3 µM. For the same compound, the GI50 (MOLT-4 leukemia) was 32.2 µM, the TGI (MOLT-4 leukemia) was 98.8 µM and the GI50 (NCI-H23 lung) was 24.1 µM. It also gave a TGI (NCI-H23 lung) of 52.1 µM, a GI50 (OVCAR-8 ovarian) of 32.5 µM and a TGI (OVCAR-8 ovarian) of 86 µM. For the same compound, the GI50 (HCC-2998 colon) was 34.6 µM, the TGI (HCC-2998 colon) was > 100 µM and the GI50 (SNB-75 CNS) was 20 µM. It also gave a TGI (SNB-75 CNS) of 46.1 µM, a GI50 (CCRF-CEM leukemia) of 25.4 µM and a TGI (CCRF-CEM leukemia) of 62.1 µM. The GI50 (NCI-H522 lung) was 31.6 µM, the TGI (NCI-H522 lung) was > 100 µM and the GI50 (NCI/ADR-RES ovarian) was 23 µM. The TGI (NCI/ADR-RES ovarian) was 49.7 µM, the GI50 (HOP-62 NSCLC) was 19.8 µM and the TGI (HOP-62 NSCLC) was 35.8 µM. The GI50 (SK-MEL-28 melanoma) was 17 µM, the TGI (SK-MEL-28 melanoma) was 32.5 µM and the GI50 (UACC-257 melanoma) was 83.5 µM. The TGI (UACC-257 melanoma) was > 100 µM, the GI50 (OVCAR-5 ovarian) was 26.1 µM and the TGI (OVCAR-5 ovarian) was 64.6 µM. It also gave a GI50 (OVCAR-3 ovarian) of 20 µM, a TGI (OVCAR-3 ovarian) of 44.5 µM and a GI50 (MDA-MB-435) of 27.3 µM. For the same compound, the TGI (MDA-MB-435) was 75.4 µM, the GI50 (K-562 leukemia) was 39.6 µM and the TGI (K-562 leukemia) was > 100 µM. It also gave a GI50 (MCF7 breast) of 22.9 µM, a TGI (MCF7 breast) of 44 µM and a GI50 (U251 CNS) of 18.4 µM. For the same compound, the TGI (U251 CNS) was 32.4 µM, the GI50 (ACHN renal) was 19.7 µM and the TGI (ACHN renal) was 35.5 µM. It also gave a GI50 (SF-295 CNS) of 26.4 µM, a TGI (SF-295 CNS) of 62.3 µM and a GI50 (LOX IMVI melanoma) of 17.8 µM. The TGI (LOX IMVI melanoma) was 31.8 µM, the GI50 (T-47D breast) was 22 µM and the TGI (T-47D breast) was 59.9 µM. The GI50 (HL-60(TB) leukemia) was 32.2 µM, the TGI (HL-60(TB) leukemia) was 58 µM and the GI50 (EKVX NSCLC) was 38.1 µM. For the same compound, the TGI (EKVX NSCLC) was > 100 µM, the GI50 (UO-31 renal) was 20.6 µM and the TGI (UO-31 renal) was 49.2 µM. For the same compound, the GI50 (KM12 colon) was 29.7 µM, the TGI (KM12 colon) was 77.9 µM and the GI50 (HCT-116 colon) was 18.5 µM. For the same compound, the TGI (HCT-116 colon) was 32.5 µM, the GI50 (BT-549 breast) was 18 µM and the TGI (BT-549 breast) was 38.9 µM. The GI50 (OVCAR-4 ovarian) was 25.4 µM, the TGI (OVCAR-4 ovarian) was 64.2 µM and the GI50 (CAKI-1 renal) was 21.4 µM. It also gave a TGI (CAKI-1 renal) of 43.4 µM, a GI50 (MDA-MB-231 breast) of 16.8 µM and a TGI (MDA-MB-231 breast) of 32.6 µM. The GI50 (SF-539 CNS) was 18 µM, the TGI (SF-539 CNS) was 35.4 µM and the GI50 (TK-10 renal) was 33.6 µM. For the same compound, the TGI (TK-10 renal) was 72.4 µM, the GI50 (MALME-3M melanoma) was 50.1 µM and the TGI (MALME-3M melanoma) was > 100 µM. The GI50 (SK-MEL-2 melanoma) was 50.5 µM, the TGI (SK-MEL-2 melanoma) was > 100 µM and the GI50 (SN12C renal) was 18 µM. The TGI (SN12C renal) was 34.1 µM, the GI50 (A549 NSCLC) was 24.8 µM and the TGI (A549 NSCLC) was 53.5 µM. It also gave a GI50 (RPMI-8226 leukemia) of 19 µM, a TGI (RPMI-8226 leukemia) of 52.7 µM and a GI50 (IGROV1 ovarian) of 18.8 µM. The TGI (IGROV1 ovarian) was 40.7 µM, the GI50 (RXF 393 renal) was 20.9 µM and the TGI (RXF 393 renal) was 52.3 µM. It also gave a GI50 (COLO 205 colon) of 24.6 µM, a TGI (COLO 205 colon) of 67.7 µM and a GI50 (HS 578T breast) of 23.9 µM. It also gave a TGI (HS 578T breast) of 49.8 µM, a GI50 (HT29 colon) of 17.8 µM and a TGI (HT29 colon) of 33.9 µM. For the same compound, the GI50 (SW-620 colon) was 23.8 µM, the TGI (SW-620 colon) was 43.4 µM and the GI50 (DU-145 prostate) was 18.2 µM. The TGI (DU-145 prostate) was 40 µM, the GI50 (PC-3 prostate) was 18 µM and the TGI (PC-3 prostate) was 36.7 µM. It also gave a GI50 (SK-OV-3 ovarian) of 23.7 µM, a TGI (SK-OV-3 ovarian) of 54.7 µM and a GI50 (SK-MEL-5 melanoma) of 19.3 µM. The TGI (SK-MEL-5 melanoma) was 34.9 µM, the GI50 (UACC-62 melanoma) was 15.4 µM and the TGI (UACC-62 melanoma) was 39.7 µM. The GI50 (HCT-15 colon) was 20 µM, the TGI (HCT-15 colon) was 36.5 µM and the GI50 (HOP-92 NSCLC) was 16.3 µM. The TGI (HOP-92 NSCLC) was 34.3 µM, the GI50 (SF-268 CNS) was 23.2 µM and the TGI (SF-268 CNS) was 50.3 µM. It also gave a GI50 (SNB-19 CNS) of 21.9 µM and a TGI (SNB-19 CNS) of 48.5 µM.
